Measurements taken from paper PMC4278708, “A Convenient Method for the Synthesis of (Prop-2-Ynyloxy)Benzene Derivatives via Reaction with Propargyl Bromide, Their Optimization, Scope and Biological Evaluation” (PLoS ONE, 2014).
In brackets after ≈: the same amount, converted by molar mass. Read-outs that look alike come from different tables or passages of the source.

How the values were obtained:
[1] = system: Bacillus subtillus; test: Antibacterial activity, disc diffusion method; assay type: cell-based; settings: for inhibition at 50 µg/mL / inhibition at 100 µg/mL / IC50: Bacillus; for inhibition at 50 µg/mL: read-out: Bacillus subtillus 50 ug/ml (percentage inhibition); for inhibition at 100 µg/mL: 100 ug/ml, read-out: Bacillus subtillus 100 ug/ml (percentage inhibition); for IC50: read-out: Bacillus subtillus IC50 ug/ml
Source text: (§1) Disc diffusion method was adopted to test the antibacterial activity of synthesized compounds 2a-10 against […] different bacterial strains. Ampiciline was used as positive control to check antibacterial activity of synthesized compounds. The bacterial strains employed were: Escherichia coli, Bacillus subtillus, Shigella flexneri, Staphylococcus aureus, Pseudomonas aeroginosa and Salmonella typhi.
(§2) Disc diffusion method was used for the determination of antibacterial activity. synthetic organic compounds were examined to evaluate their antibacterial potential against four different strains of bacteria i.e. Staphlococcus aureus (Gram + ive), Pseudomonas- aeroginosa (Gram−ive) and Escherichia coli (Gram−ive), Bacillus subtilis (Gram + ive), Salmonella typhi (Gram−ive) and Shigella flexneri (−ive). The synthetic organic compounds were dissolved in an appropriate solvent to get the solution of known concentration (5 µg/µl or 10 µg/µl). In order to prepare discs of different potencies known volume of extract/synthetic organic compound solution was applied on the discs, air dried and used. After preparation of the sterilized nutrient agar and nutrient broth medium, the sterilized nutrient agar medium was poured under aseptic conditions into sterile glass petri dishes/plates. A known volume of bacterial growth culture can also be poured on the surface of agar medium solidified in petri dishes. After inoculation petri plates were kept at room temperature for 15–30 minutes so that the poured medium is adsorbed. All the discs, including test sample, +ive and –ve controls were placed onto the inoculated nutrient agar medium solidified in petri dishes with the help of sterile forceps and incubated the petri plates at 37°C±2°C for 16–24 hours. Zone of inhibition was measured in mm using ordinary scale. Experiment was repeated three times to get the SD values.

[2] = system: Staphylococcus aureus; test: Antibacterial activity, disc diffusion method; assay type: cell-based; settings: for IC50 / inhibition at 40 µg/mL / inhibition at 100 µg/mL: Staphylococcus aureus; for IC50: read-out: Staphylococcus aureus IC50 ug/ml; for inhibition at 40 µg/mL: read-out: Staphylococcus aureus 40 ug/ml (percentage inhibition); for inhibition at 100 µg/mL: read-out: Staphylococcus aureus 100 ug/ml (percentage inhibition)
Source text: as §1, §2

[3] = target: urease enzyme (Canavalia ensiformis, UniProt P07374); test: biochemical; assay type: biochemical; settings: for inhibition at 50 µg/mL: read-out: Percentage inhibition at 50 ug/mL; for inhibition at 100 µg/mL: read-out: Percentage inhibition at 100 ug/mL; for urease inhibition activity (in words): 50 and 100 µg/ml tested
Experimental: Antiurease activity of the synthesized compounds was determined by using the modified phenol-hypochlorite method. Varying concentrations were used to prepare the urease inhibition curve of Thiourea (a known inhibitor of Urease) in the reaction mixture. Phosphate buffer solution of pH 7 containing 1 unit of enzyme was added about 200 µl in the test tube which was followed by the addition of 230 µl of phosphate buffer and 20 µl of thiourea from a scrupulous stock solution for the particular concentration of thiourea in the reaction mixture respectively. Test sample solutions were added instead of thiourea solution in case of test samples. The reaction mixture were mixed and incubated at 25°C for 5 min. 400 µl of urea stock (20 mM) was added in each test tube. In order to allow the action of urease on urea, all the test tubes were incubated at 40°C.
Phenol hypochlorite reagent (1150 µl) was added after 10 min incubation at 40°C. Test tubes were again incubated at 56°C for 25 min. A blue coloured complex was formed in the reaction mixture. The samples were allowed to cool for 5 min and then their absorbance values were measured at 625 nm and the %age inhibition was calculated. Experiment was repeated three times to get the SD values.

[4] = Nitric oxide (NO) scavenging activity (sodium nitropruside / Griess reagent); settings: for IC50: NO scavenging; for Percentage scavenging activity at 50 ug/ml / Percentage scavenging activity at 100 ug/ml: NO
Experimental: Solutions of known concentration were prepared by dissolving the synthesized compounds in appropriate solvents. A mixture of sample solution (20 µl), 10 mM sodium nitropruside solution (200 µl) and phosphate buffer of 7.4 pH (1780 µl) was taken in a dry test tube and the mixture was incubated at 37°C for 2 hours. 200 µl Griess reagent (0.3% Sulphanilic acid in glacial acetic acid, 0.1% Naphthyl ethylene diamine HCL (NED): Mixed equal volume of both solutions just before use) was added after the incubation period is over. After 20 min keeping the solution at room temperature, its absorbance at 528 nm was measured. Each sample was analyzed in triplicate. Positive control of any known antioxidant and control of all samples were run in parallel. Use of negative control was to calibrate the instrument. Sample blanks were also prepared in case if the samples were coloured. Correction in the absorbance values was made by subtracting the sample blank reading from the sample reading.

Sequence of urease enzyme (P07374 whole entry, looked up): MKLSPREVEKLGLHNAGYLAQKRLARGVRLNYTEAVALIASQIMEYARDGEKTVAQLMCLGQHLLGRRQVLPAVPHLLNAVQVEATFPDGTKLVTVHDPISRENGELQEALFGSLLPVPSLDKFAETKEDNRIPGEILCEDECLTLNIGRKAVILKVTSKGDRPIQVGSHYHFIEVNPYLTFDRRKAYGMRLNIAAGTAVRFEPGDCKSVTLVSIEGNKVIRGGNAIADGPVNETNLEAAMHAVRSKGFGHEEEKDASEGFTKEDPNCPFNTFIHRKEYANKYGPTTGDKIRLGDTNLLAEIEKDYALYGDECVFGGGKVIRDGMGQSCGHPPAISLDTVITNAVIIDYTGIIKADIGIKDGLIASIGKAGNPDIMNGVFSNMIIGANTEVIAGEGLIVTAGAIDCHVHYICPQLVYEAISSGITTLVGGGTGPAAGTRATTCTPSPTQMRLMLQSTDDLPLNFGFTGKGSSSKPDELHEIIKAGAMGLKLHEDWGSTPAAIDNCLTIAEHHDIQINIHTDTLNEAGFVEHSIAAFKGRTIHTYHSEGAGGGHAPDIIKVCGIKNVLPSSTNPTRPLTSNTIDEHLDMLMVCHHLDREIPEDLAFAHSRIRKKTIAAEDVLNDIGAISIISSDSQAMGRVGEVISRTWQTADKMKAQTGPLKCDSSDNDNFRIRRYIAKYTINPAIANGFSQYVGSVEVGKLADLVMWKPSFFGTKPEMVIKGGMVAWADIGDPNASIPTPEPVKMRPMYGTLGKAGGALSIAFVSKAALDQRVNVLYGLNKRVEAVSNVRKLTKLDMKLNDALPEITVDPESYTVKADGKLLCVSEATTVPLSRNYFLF

Row | Molecule | activity against Bacillus subtillus (in words) [1] | IC50 [2] [µg/mL] | inhibition at 40 µg/mL [2] [%] | inhibition at 100 µg/mL [2] [%] | IC50 [3] [µM] | inhibition at 50 µg/mL [3] [%] | inhibition at 100 µg/mL [3] [%] | melting point [°C] | IC50 [4] [µg/mL] | Percentage scavenging activity at 50 ug/ml [4] [%] | Percentage scavenging activity at 100 ug/ml [4] [%] | inhibition at 100 µg/mL [1] [%] | IC50 [1] [µg/mL] | activity against Staphylococcus aureus (in words) [2] | further results
1 | C#CCOc1ccc(Br)cc1Cl [Compound 2a, 4-bromo-2-chloro-1-(prop-2-ynyloxy)benzene] | inactive | 97.7 (≈ 398 µM) | 29.13 ± 0.12 | 51 ± 0.5 | 245 | 42.5 ± 0.7 | 82 ± 0.09 | 29 | 67.72 (≈ 276 µM) | 35.67±0.09 | 76.09±0.12 |  |  |  | inhibition at 50 µg/mL ([1]; 50 ug/ml): 42.4 ± 0.35%
2 | C#CCOc1ccc(Br)cc1Br [Compound 2c, 2,4-dibromo-1-(prop-2-ynyloxy)benzene] | batter activity | 87.7 (≈ 302 µM) | 31.47 ± 0.2 | 56 ± 0.1 | 242 | 36 ± 0.5 | 86.45 ± 0.07 | 157.95 | 63.8 (≈ 220 µM) | 39.67±0.09 | 77.03±0.11 | 55.01 ± 0.25 | 83.8 (≈ 289 µM) |  | 
3 | C#CCOc1ccc([N+](=O)[O-])cc1 [Compound 2f, 1-nitro-4-(prop-2-ynyloxy)benzene] | batter activity |  | 18.7 ± 0.3 | 39 ± 0.4 | 360 | 44 ± 0.43 | 65.8 ± 0.18 | 129 |  | 32±0.10 | 47.01±0.27 | 57.9 ± 0.25 | 87.5 (≈ 494 µM) | inactive | nitric oxide scavenging activity (in words) [4]: did not show any significant results
4 | C#CCOc1ccc(S(=O)(=O)c2ccc(OCC#C)cc2)cc1 [Compound 4b, 4,4′-sulfonylbis((prop-2-ynyloxy)benzene)] |  | 94.2 (≈ 289 µM) | 26.9 ± 0.35 | 53 ± 0.7 | 217 | 32 ± 0.28 | 74.9 ± 0.13 | 136 | 89.6 (≈ 275 µM) | 15.33±0.12 | 59±0.15 | 50.9 ± 0.34 | 97.6 (≈ 299 µM) | moderate activity | 
5 | C#CCOc1cccc2ccccc12 [Compound 6a, 1-(prop-2-ynyloxy)naphthalene] |  |  | -1.85 | 10 ± 0.9 | 373 | 41.33 ± 0.41 | 65.3 ± 0.18 |  | 83 (≈ 455 µM) | 24.33±0.12 | 63.17±0.19 |  | 92.6 (≈ 508 µM) | inactive | 
6 | C#CCOc1ccc2ccccc2c1 [Compound 6b, 2-(prop-2-ynyloxy)naphthalene] |  | 98.3 (≈ 539 µM) | 21.4 ± 0.4 | 51 ± 0.3 |  | 32 ± 0.38 | 41.9 ± 0.313 |  | 76.16 (≈ 418 µM) | 33.33±0.1 | 65.19±0.18 | 57.8 ± 0.26 | 79.2 (≈ 435 µM) |  | inhibition at 50 µg/mL ([1]; 50 ug/ml): 39.06 ± 0.05%; urease inhibition activity (in words) [3]: did not show any satisfactory results
7 | C#CCNc1ccc(Br)c(C)c1 [Compound 8c, 4-bromo-3-methyl-N-(prop-2-ynyl)aniline] |  |  | 15.9 ± 0.69 | 35 ± 0.2 |  | 32 ± 0.38 | 45.26 ± 0.295 | 40.85 | 78 (≈ 348 µM) | 33.66±0.09 | 62.8±0.19 | 36 ± 0.39 |  |  | urease inhibition activity (in words) [3]: did not show any satisfactory results
8 | N-(prop-2-ynyl)-4-(prop-2-ynyloxy)aniline [Compound 10] | batter activity |  |  |  |  |  |  |  | 78.1 | 30±0.10 | 65.5±0.18 |  |  | moderate activity | Bacillus subtillus IC50 [1]: 98.5 µg/mL; Bacillus subtillus 50 ug/ml (percentage inhibition) ([1]; 50 ug/ml): 6.13±0.35%; Staphylococcus aureus IC50 [2]: 96.3 µg/mL; Staphylococcus aureus 40 ug/ml (percentage inhibition) ([2]; 40 ug/ml): 24.4±0.11%; Staphylococcus aureus 100 ug/ml (percentage inhibition) ([2]; 100 ug/ml): 52±0.1%; IC50 ([3]; urease): 89.6 µg/mL; Percentage inhibition at 50 ug/mL ([3]; urease, 50 ug/mL): 25±0.45%; Percentage inhibition at 100 ug/mL ([3]; urease, 100 ug/mL): 56.5±0.234%
